Measurements: patent publication US20260092071A1, “COMPOUNDS AND COMPOSITIONS AS SMARCA2/4 DEGRADERS AND USES THEREOF” (REGENTS OF THE UNIVERSITY OF MICHIGAN, priority 2022, published 2026)
Read-outs that look alike come from different tables or passages of the source.

Key:
[1] = biological target: SMARCA2 (Homo sapiens, UniProt P51531); assay: HiBiT assay for protein degradation, Hela SMARCA2-HiBiT cells (A series); format: cell-based; set-up: Hela cells were genetically modified via CRISPR/Cas9 to fuse HiBiT to the carboxy terminus of SMARCA2; host or cells: HeLa (CRISPR/Cas9 HiBiT knock-in); details: for DC50: read-out: SMARC A2 Hela HiBit DC50; for Dmax: read-out: SMARC A2 Hela HiBit Dmax (%);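 on SMARC A2 Hela HiBit Dmax (%): 24 h compound treatment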
SMARCA2, sequence (P51531 whole entry, the tested form may be a part): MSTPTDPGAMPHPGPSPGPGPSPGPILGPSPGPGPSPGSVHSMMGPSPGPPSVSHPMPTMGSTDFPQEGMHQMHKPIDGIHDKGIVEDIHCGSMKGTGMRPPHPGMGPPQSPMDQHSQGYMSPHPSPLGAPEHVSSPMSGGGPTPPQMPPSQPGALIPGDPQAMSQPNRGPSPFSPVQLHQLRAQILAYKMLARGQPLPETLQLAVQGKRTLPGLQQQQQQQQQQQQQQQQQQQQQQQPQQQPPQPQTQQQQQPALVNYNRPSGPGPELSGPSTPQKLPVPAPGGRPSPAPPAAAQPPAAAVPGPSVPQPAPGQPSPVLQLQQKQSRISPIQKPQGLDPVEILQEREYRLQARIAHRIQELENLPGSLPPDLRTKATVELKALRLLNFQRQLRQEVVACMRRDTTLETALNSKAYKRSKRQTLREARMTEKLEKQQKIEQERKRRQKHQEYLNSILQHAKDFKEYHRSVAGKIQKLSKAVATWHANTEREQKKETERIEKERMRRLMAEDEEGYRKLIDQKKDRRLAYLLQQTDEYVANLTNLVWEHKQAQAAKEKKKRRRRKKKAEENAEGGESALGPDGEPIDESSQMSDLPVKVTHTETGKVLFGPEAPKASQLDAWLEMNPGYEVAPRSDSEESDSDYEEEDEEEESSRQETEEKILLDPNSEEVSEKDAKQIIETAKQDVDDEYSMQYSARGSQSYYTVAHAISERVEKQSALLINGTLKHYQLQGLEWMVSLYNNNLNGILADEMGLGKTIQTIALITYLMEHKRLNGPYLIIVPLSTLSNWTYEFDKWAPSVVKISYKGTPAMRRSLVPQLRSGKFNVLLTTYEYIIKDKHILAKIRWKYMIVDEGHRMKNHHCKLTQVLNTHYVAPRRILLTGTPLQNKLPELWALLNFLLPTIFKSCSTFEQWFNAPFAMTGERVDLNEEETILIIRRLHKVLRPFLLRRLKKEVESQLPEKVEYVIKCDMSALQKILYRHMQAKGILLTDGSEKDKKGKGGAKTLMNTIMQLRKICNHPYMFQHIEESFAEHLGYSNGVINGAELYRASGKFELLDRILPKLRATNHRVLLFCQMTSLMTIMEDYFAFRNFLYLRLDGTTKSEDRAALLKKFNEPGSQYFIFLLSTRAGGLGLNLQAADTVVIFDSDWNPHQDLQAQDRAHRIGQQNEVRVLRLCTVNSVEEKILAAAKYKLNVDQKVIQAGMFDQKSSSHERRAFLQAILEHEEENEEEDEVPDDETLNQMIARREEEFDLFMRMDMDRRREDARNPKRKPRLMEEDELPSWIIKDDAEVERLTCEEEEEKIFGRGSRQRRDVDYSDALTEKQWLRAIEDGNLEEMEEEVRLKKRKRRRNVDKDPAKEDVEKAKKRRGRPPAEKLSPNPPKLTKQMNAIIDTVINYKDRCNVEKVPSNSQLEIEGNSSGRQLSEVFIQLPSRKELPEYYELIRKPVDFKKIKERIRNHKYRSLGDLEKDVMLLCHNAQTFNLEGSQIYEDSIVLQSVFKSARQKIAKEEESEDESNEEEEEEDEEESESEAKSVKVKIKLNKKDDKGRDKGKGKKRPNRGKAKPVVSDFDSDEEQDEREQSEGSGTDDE
Method in brief: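 HeLa cells engineered by CRISPR/Cas9 to carry a HiBiT tag fused to the C-terminus of SMARCA2 (Promega CS302365) were grown in DMEM supplemented with FBS and penicillin-streptomycin. After treatment, remaining SMARCA2 protein was quantified with the Nano-Glo® HiBiT Lytic Detection Assay (Promega N3050), and curves were fitted in GraphPad Prism.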

[2] = biological target: SMARCA4 (Homo sapiens, UniProt P51532); assay: HiBiT assay for protein degradation, Hela SMARCA4-HiBiT cells (A series); format: cell-based; set-up: fuse HiBiT to the carboxy terminus of SMARCA2 (Promega CS302365) or SMARCA4 (Promega CS3023225); host or cells: HeLa (CRISPR/Cas9 HiBiT knock-in); details: for DC50: read-out: SMARC A4 Hela HiBit DC50; for Dmax: read-out: SMARC A4 Hela HiBit Dmax(%)
SMARCA4, sequence (P51532 whole entry, the tested form may be a part): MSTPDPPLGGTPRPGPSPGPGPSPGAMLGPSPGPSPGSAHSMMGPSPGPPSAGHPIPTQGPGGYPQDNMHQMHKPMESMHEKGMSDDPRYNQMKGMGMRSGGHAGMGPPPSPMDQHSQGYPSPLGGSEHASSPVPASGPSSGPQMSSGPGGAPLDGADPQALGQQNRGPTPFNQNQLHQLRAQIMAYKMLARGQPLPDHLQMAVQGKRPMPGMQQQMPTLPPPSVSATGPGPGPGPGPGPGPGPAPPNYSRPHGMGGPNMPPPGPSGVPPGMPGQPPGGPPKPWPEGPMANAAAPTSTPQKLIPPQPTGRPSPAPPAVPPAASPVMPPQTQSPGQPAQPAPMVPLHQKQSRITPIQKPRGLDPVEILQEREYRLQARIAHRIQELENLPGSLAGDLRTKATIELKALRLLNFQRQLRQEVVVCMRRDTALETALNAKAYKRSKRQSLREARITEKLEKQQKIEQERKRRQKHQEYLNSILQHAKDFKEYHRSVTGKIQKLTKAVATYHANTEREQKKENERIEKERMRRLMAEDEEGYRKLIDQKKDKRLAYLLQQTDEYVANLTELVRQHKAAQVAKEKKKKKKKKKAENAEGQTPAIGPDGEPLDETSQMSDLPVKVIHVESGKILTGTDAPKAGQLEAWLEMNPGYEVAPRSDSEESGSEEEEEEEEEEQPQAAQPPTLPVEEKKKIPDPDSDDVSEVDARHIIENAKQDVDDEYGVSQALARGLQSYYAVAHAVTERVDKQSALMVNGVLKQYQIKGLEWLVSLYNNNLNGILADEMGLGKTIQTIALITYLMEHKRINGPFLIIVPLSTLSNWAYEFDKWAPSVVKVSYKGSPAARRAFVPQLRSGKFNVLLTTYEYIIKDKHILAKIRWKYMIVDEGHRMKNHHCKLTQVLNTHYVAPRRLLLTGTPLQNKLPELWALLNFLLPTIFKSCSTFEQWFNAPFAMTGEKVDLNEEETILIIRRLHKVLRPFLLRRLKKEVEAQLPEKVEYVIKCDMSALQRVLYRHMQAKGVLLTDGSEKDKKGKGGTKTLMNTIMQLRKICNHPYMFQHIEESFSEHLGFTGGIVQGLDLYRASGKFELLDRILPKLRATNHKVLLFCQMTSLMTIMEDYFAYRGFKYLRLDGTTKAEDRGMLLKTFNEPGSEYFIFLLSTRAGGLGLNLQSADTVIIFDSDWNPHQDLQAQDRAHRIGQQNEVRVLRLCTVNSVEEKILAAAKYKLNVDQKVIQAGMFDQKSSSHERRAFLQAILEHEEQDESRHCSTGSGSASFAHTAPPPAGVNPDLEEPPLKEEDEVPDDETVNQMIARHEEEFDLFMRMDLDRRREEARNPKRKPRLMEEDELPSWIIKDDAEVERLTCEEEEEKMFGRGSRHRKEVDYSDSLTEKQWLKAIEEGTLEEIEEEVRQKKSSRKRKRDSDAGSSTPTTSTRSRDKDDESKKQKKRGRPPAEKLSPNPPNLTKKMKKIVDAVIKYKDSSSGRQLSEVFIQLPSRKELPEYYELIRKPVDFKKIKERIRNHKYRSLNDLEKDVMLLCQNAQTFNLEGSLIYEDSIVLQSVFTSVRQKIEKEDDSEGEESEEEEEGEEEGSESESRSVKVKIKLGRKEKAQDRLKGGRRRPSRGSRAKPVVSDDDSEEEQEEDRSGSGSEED
Method in brief: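 HeLa cells engineered by CRISPR/Cas9 to carry a HiBiT tag fused to the C-terminus of SMARCA4 (Promega CS3023225) were grown in DMEM supplemented with FBS and penicillin-streptomycin. After compound exposure, remaining SMARCA4 protein was quantified using the Nano-Glo® HiBiT Lytic Detection Assay (Promega N3050), and curves were fitted in GraphPad Prism.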

[3] = Hela SMARCA2-HiBiT cells, 24 hours treatment
[4] = Hela SMARCA4-HiBiT cells, 24 hours treatment

| SMARC A2 Hela HiBit Dmax (%) [1, 3] | DC50 [1] | SMARC A4 Hela HiBit Dmax(%) [2, 4] | DC50 [2] | DC50 [1, 3] | Dmax [1, 3] | DC50 [2, 4] | Dmax [2, 4] | SMILES | Dmax ([1]; HeLa) | Dmax ([2]; HeLa) |
| --- | --- | --- | --- | --- | --- | --- | --- | --- | --- | --- |
| A (A (>90% degradation)) | < 100 nM | A (A (>90% degradation)) | < 100 nM | – | – | – | – | Cc1ncsc1-c1ccc([C@H](C)NC(=O)[C@@H]2C[C@@H](O)CN2C(=O)[C@@H](n2cc([C@H]3C[C@H](CN4CCC(c5ccc6c(c5)C5(CCCCC5)c5nc(=O)c7c(Br)cccc7n5-6)CC4)C3)nn2)C(C)(C)C)cc1 [Compound A61, (2S,4R)-1-((S)-2-(4-((1r,3S)-3-((4-(4′-bromo-5′-oxo-5′H-spiro[cyclohexane-1,7′-indolo[1,2-a]quinazolin]-9′-yl)piperidin-1-yl)methyl)cyclobutyl)-1H-1,2,3-triazol-1-yl)-3,3-dimethylbutanoyl)-4-hydroxy-N—((S)-1-(4-(4-methylthiazol-5-yl)phenyl)ethyl)pyrrolidine-2-carboxamide] | – | – |
| A (A (>90% degradation)) | < 100 nM | B (B (70-90% degradation)) | < 100 nM | – | – | – | – | Cc1ncsc1-c1ccc([C@H](C)NC(=O)[C@@H]2C[C@@H](O)CN2C(=O)[C@@H](n2cc([C@H]3C[C@H](CN4CCC(c5ccc6c(c5)-n5c(nc(=O)c7c(Br)cccc75)C65CCCCC5)CC4)C3)nn2)C(C)(C)C)cc1 [Compound A63, (2S,4R)-1-((S)-2-(4-((1r,3S)-3-((4-(4′-bromo-5′-oxo-5′H-spiro[cyclohexane-1,7′-indolo[1,2-a]quinazolin]-10′-yl)piperidin-1-yl)methyl)cyclobutyl)-1H-1,2,3-triazol-1-yl)-3,3-dimethylbutanoyl)-4-hydroxy-N—((S)-1-(4-(4-methylthiazol-5-yl)phenyl)ethyl)pyrrolidine-2-carboxamide] | – | – |
| A (A (>90% degradation)) | < 100 nM | B (B (70-90% degradation)) | 100 to 500 nM | – | – | – | – | Cc1ncsc1-c1ccc([C@H](C)NC(=O)[C@@H]2C[C@@H](O)CN2C(=O)[C@@H](n2cc(C3(CN4CCC(c5ccc6c(c5)-n5c(nc(=O)c7c(Br)cccc75)C65CCCCC5)CC4)CC3)nn2)C(C)(C)C)cc1 [Compound A64, (2S,4R)-1-((S)-2-(4-(1-((4-(4′-bromo-5′-oxo-5′H-spiro[cyclohexane-1,7′-indolo[1,2-a]quinazolin]-10′-yl)piperidin-1-yl)methyl)cyclopropyl)-1H-1,2,3-triazol-1-yl)-3,3-dimethylbutanoyl)-4-hydroxy-N—((S)-1-(4-(4-methylthiazol-5-yl)phenyl)ethyl)pyrrolidine-2-carboxamide] | – | – |
| A (A (>90% degradation)) | < 100 nM | A (A (>90% degradation)) | < 100 nM | – | – | – | – | Cc1ncsc1-c1ccc([C@H](C)NC(=O)[C@@H]2C[C@@H](O)CN2C(=O)[C@@H](n2cc(C3(CCN4CCC(c5ccc6c(c5)-n5c(nc(=O)c7c(Br)cccc75)C65CCCCC5)CC4)CC3)nn2)C(C)(C)C)cc1 [Compound A65, (2S,4R)-1-((S)-2-(4-(1-(2-(4-(4′-bromo-5′-oxo-5′H-spiro[cyclohexane-1,7′-indolo[1,2-a]quinazolin]-10′-yl)piperidin-1-yl)ethyl)cyclopropyl)-1H-1,2,3-triazol-1-yl)-3,3-dimethylbutanoyl)-4-hydroxy-N—((S)-1-(4-(4-methylthiazol-5-yl)phenyl)ethyl)pyrrolidine-2-carboxamide] | – | – |
| C (C (50-69% degradation)) | > 1000 nM | D (D (<50% degradation)) | > 1000 nM | – | – | – | – | Cc1ncsc1-c1ccc([C@H](C)NC(=O)[C@@H]2C[C@@H](O)CN2C(=O)[C@@H](n2cc(-c3ccc(CN4CCC(c5ccc6c(c5)-n5c(nc(=O)c7c(Br)cccc75)C65CCCCC5)CC4)nc3)nn2)C(C)(C)C)cc1 [Compound A66] | – | – |
| – | – | – | – | < 100 nM | > 90% | < 100 nM | 70 to 90% | Cc1ncsc1-c1ccc(CNC(=O)[C@@H]2C[C@@H](O)CN2C(=O)[C@@H](n2cc([C@H]3CC[C@H](CN4CCC(c5ccc6c(c5)-n5c(nc(=O)c7c(Br)cccc75)C65CCCCC5)CC4)CC3)nn2)C(C)(C)C)cc1 [Compound A67, (2S,4R)-1-((S)-2-(4-((1r,4S)-4-((4-(4′-bromo-5′-oxo-5′H-spiro[cyclohexane-1,7′-indolo[1,2-a]quinazolin]-10′-yl)piperidin-1-yl)methyl)cyclohexyl)-1H-1,2,3-triazol-1-yl)-3,3-dimethylbutanoyl)-4-hydroxy-N-(4-(4-methylthiazol-5-yl)benzyl)pyrrolidine-2-carboxamide] | – | – |
| – | – | – | – | < 100 nM | > 90% | > 1000 nM | 50 to 69% | Cc1ncsc1-c1ccc([C@H](CN2CC(C)(O)C2)NC(=O)[C@@H]2C[C@@H](O)CN2C(=O)[C@@H](n2cc([C@H]3CC[C@H](CN4CCC(c5ccc6c(c5)-n5c(nc(=O)c7c(Cl)cccc75)C65CCCCC5)CC4)CC3)nn2)C(C)(C)C)cc1 [Compound A71, (2S,4R)-1-((S)-2-(4-((1r,4S)-4-((4-(4′-chloro-5′-oxo-5′H-spiro[cyclohexane-1,7′-indolo[1,2-a]quinazolin]-10′-yl)piperidin-1-yl)methyl)cyclohexyl)-1H-1,2,3-triazol-1-yl)-3,3-dimethylbutanoyl)-4-hydroxy-N—((R)-2-(3-hydroxy-3-methylazetidin-1-yl)-1-(4-(4-methylthiazol-5-yl)phenyl)ethyl)pyrrolidine-2-carboxamide] | – | – |

| SMILES | SMARC A2 Hela HiBit Dmax (%) [1, 3] | DC50 [1] | SMARC A4 Hela HiBit Dmax(%) [2, 4] | DC50 [2] | DC50 [1, 3] | Dmax [1, 3] | DC50 [2, 4] | Dmax [2, 4] | Dmax ([1]; HeLa) | Dmax ([2]; HeLa) |
| --- | --- | --- | --- | --- | --- | --- | --- | --- | --- | --- |
| Cc1ncsc1-c1ccc([C@H](C)NC(=O)[C@@H]2C[C@@H](O)CN2C(=O)[C@@H](n2cc([C@H]3CC[C@H](CN4CCC(c5ccc6c(c5)-n5c(nc(=O)c7c(Br)cccc75)C65CCCCC5)CC4)CC3)nn2)C(C)(C)C)cc1 [Compound A62, (2S,4R)-1-((S)-2-(4-((1r,4S)-4-((4-(4′-bromo-5′-oxo-5′H-spiro[cyclohexane-1,7′-indolo[1,2-a]quinazolin]-10′-yl)piperidin-1-yl)methyl)cyclohexyl)-1H-1,2,3-triazol-1-yl)-3,3-dimethylbutanoyl)-4-hydroxy-N—((S)-1-(4-(4-methylthiazol-5-yl)phenyl)ethyl)pyrrolidine-2-carboxamide] | – | < 100 nM | – | < 100 nM | – | – | – | – | > 90% | 70 to 90% |
| C[C@H](NC(=O)[C@@H]1C[C@@H](O)CN1C(=O)[C@@H](n1cc([C@H]2CC[C@H](CN3CCC(c4ccc5c(c4)-n4c(nc(=O)c6c(Br)cccc64)C54CCCCC4)CC3)CC2)nn1)C(C)(C)C)c1ccc(Cl)cc1 [Compound A68, (2S,4R)-1-((S)-2-(4-((1r,4S)-4-((4-(4′-bromo-5′-oxo-5′H-spiro[cyclohexane-1,7′-indolo[1,2-a]quinazolin]-10′-yl)piperidin-1-yl)methyl)cyclohexyl)-1H-1,2,3-triazol-1-yl)-3,3-dimethylbutanoyl)-N—((S)-1-(4-chlorophenyl)ethyl)-4-hydroxypyrrolidine-2-carboxamide] | – | – | – | – | < 100 nM | – | > 1000 nM | – | > 90% | – |
